According to patent publication US20100216779A1 (GLAXOSMITHKLINE LLC, priority 2007, published 2010):

What was measured:
Assay type in all cases: cell-based
[1] = molecular target: T1, human IGF-1R (NIH-3T3 cells over expressing human IGF-1R) (Homo sapiens, UniProt P08069); assay: IGF-1R cellular autophosphorylation (DELFIA); settings: IGF-1 stimulated
T1 construct: expressed in transfected cells; host or cells: NIH-3T3 (mouse fibroblasts)
Method in brief: (§1)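 Read-out: DELFIA on lysates, receptor-specific capture antibody plus europium-labelled anti-phosphotyrosine, reported as % of IGF-1- or insulin-stimulated signal. Transfected NIH-3T3 cells got compound (30 uM–1.5 nM, 2 h) before a 15 min ligand pulse: IGF-1 30 ng/mL for IGF-1R, insulin 3 ug/mL for IR.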

[2] = tested on: NCI-H929 (multiple myeloma); assay: Inhibition of cell proliferation, CellTiter-Glo, NCI-H929; settings: Homo sapiens, 72 h
Method in brief: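 Cells were grown in medium with 10% FBS at 37° C, 5% CO2. Cell number was read as CellTiter-Glo luminescence (cellular ATP), with untreated wells as control.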

COLO205 (colon) = assay: Inhibition of cell proliferation, CellTiter-Glo, COLO205; settings: Homo sapiens, COLO 205, 72 h
Method in brief: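 Exponentially growing COLO205 cells in medium with 10% FBS were plated below 2000 cells/well at 37 °C, 5% CO2. Untreated wells served as controls.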

[3] = molecular target: T2, IR (NIH-3T3 cells over expressing human IGF-1R or IR) (Homo sapiens, UniProt P06213); assay: IR cellular autophosphorylation (DELFIA); settings: NIH-3T3 cells over expressing IR, insulin stimulated
T2 construct: expressed in transfected cells; host or cells: NIH-3T3 (mouse fibroblasts)
Method in brief: as §1

T2 sequence (P06213 28-1382): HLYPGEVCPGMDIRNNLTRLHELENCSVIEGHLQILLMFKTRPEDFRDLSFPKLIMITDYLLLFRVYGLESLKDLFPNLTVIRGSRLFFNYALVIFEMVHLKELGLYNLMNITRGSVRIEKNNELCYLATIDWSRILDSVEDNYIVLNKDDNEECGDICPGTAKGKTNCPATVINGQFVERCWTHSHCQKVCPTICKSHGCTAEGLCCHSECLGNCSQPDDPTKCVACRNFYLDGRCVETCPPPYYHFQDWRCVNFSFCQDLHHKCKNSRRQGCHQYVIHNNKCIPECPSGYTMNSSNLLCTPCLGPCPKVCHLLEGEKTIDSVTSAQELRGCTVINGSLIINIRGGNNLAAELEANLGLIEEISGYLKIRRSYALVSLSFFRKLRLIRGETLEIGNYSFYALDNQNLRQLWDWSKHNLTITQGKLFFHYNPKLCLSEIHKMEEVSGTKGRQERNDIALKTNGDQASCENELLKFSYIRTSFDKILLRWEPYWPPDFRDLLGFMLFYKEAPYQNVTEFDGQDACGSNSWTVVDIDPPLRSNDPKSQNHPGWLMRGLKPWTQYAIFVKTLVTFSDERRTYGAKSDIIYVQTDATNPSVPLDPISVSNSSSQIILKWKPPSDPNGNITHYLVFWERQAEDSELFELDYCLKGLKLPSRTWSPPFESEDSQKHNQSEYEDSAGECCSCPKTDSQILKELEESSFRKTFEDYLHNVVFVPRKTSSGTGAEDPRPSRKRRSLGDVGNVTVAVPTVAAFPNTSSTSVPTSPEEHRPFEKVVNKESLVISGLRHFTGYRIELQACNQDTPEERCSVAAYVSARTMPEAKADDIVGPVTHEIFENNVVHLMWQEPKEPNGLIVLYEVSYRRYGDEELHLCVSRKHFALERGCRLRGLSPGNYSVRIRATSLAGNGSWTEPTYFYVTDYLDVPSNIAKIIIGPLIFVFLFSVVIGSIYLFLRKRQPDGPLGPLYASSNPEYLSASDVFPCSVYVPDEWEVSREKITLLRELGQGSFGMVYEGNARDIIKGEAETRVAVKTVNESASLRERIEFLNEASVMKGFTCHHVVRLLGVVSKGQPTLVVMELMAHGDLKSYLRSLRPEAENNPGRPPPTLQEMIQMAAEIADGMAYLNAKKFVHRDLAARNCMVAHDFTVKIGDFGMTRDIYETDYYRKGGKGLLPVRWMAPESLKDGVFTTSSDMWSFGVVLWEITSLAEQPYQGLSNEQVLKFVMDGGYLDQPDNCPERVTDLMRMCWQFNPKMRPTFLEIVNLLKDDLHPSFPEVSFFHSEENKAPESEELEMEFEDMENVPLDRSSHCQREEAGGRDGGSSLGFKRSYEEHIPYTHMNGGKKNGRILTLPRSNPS
T1 sequence (P08069 31-1367): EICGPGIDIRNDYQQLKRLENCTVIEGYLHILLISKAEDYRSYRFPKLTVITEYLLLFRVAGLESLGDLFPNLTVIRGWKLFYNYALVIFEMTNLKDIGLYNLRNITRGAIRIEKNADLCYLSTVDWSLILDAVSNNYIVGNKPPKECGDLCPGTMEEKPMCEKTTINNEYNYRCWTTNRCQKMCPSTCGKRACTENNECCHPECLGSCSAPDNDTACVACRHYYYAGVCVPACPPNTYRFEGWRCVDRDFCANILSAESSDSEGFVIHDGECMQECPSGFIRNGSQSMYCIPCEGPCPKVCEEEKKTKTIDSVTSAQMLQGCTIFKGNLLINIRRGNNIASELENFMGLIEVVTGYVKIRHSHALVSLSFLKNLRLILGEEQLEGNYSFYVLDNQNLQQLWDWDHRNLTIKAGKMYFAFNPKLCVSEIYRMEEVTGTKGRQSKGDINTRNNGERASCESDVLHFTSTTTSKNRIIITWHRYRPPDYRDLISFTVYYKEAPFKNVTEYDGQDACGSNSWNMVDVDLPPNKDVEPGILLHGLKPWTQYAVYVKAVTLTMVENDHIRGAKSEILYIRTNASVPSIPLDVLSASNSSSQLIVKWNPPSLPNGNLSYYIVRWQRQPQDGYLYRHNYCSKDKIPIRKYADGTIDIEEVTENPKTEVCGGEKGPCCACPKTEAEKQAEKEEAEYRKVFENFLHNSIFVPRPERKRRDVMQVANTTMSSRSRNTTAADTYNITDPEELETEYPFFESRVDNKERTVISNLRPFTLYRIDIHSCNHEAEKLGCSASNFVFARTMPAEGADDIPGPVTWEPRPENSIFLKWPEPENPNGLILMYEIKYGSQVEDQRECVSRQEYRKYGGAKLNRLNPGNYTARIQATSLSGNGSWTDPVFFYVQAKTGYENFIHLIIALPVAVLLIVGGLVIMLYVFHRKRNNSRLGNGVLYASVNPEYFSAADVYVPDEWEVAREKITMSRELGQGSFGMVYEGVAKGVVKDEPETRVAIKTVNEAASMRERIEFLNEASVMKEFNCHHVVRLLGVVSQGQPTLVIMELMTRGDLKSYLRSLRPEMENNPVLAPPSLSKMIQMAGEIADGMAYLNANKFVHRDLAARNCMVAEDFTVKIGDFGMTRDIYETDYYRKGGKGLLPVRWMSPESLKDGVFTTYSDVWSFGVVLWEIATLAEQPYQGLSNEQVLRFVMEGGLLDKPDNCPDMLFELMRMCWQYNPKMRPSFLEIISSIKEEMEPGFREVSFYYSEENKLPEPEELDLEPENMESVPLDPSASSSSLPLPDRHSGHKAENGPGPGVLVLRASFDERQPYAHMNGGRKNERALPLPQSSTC

Structure (SMILES) | IC50 [1] | IC50 [2] | IC50 (COLO205 (colon)) | IC50 [3]
COc1cc(N2CCN(S(C)(=O)=O)CC2)ccc1Nc1nccc(-c2c(-c3cccc(C(=O)Nc4c(F)cccc4F)c3)nc3ccccn23)n1 [Example 234, N-(2,6-difluorophenyl)-3-{3-[2-({2-(methyloxy)-4-[4-(methylsulfonyl)-1-piperazinyl]phenyl}amino)-4-pyrimidinyl}imidazo[1,2-a]pyridin-2-yl]benzamide] | < 100 nM | < 250 nM | 250 to 1000 nM | < 100 nM
CCOc1ccc(-c2nc3ccccn3c2-c2ccnc(Nc3cc(CC)c(N4CCN(CCS(C)(=O)=O)CC4)cc3OC)n2)cc1C(=O)Nc1c(F)cccc1F [Example 235, N-(2,6-difluorophenyl)-5-(3-{2-[(5-ethyl-2-(methyloxy)-4-{4-[2-(methylsulfonyl)ethyl]-1-piperazinyl}phenyl)amino]-4-pyrimidinyl}imidazo[1,2-a]pyridin-2-yl)-2-(ethyloxy)benzamide] | < 100 nM | < 250 nM | < 250 nM | < 100 nM
COc1cc(N2CCC(N3CCN(S(C)(=O)=O)CC3)CC2)c(C)cc1Nc1nccc(-c2c(-c3ccc(OC)c(C(=O)Nc4c(F)cccc4F)c3)nc3ccccn23)n1 [Example 236, N-(2,6-difluorophenyl)-5-(3-{2-[(5-methyl-2-(methyloxy)-4-{4-[4-(methylsulfonyl)-1-piperazinyl]-1-piperidinyl}phenyl)amino]-4-pyrimidinyl}imidazo[1,2-a]pyridin-2-yl)-2-(methyloxy)benzamide] | < 100 nM | < 250 nM | < 250 nM | < 100 nM
CCOc1ccc(-c2nc3ccccn3c2-c2ccnc(Nc3ccc(N4CCN(CCOC)CC4)cc3OC)n2)cc1C(=O)Nc1c(F)cccc1F [Example 238, N-(2,6-difluorophenyl)-2-(ethyloxy)-5-(3-{2-[(2-(methyloxy)-4-{4-[2-(methyloxy)ethyl]-1-piperazinyl}phenyl)amino]-4-pyrimidinyl}imidazo[1,2-a]pyridin-2-yl)benzamide] | < 100 nM | < 250 nM | 250 to 1000 nM | < 100 nM
COCCN1CCN(c2ccc(Nc3nccc(-c4c(-c5cccc(C(=O)Nc6c(F)cccc6F)c5)nc5ccccn45)n3)c(OC)c2)CC1 [Example 240, N-(2,6-difluorophenyl)-3-(3-{2-[(2-(methyloxy)-4-{4-[2-(methyloxy)ethyl]-1-piperazinyl}phenyl)amino]-4-pyrimidinyl}imidazo[1,2-a]pyridin-2-yl)benzamide] | < 100 nM | 250 to 1000 nM | 250 to 1000 nM | < 100 nM
COCCN1CCN(c2cc(OC)c(Nc3nccc(-c4c(-c5ccc(OC)c(C(=O)Nc6c(F)cccc6F)c5)nc5ccccn45)n3)cc2C)CC1 [Example 242, N-(2,6-difluorophenyl)-5-(3-{2-[(5-methyl-2-(methyloxy)-4-{4-[2-(methyloxy)ethyl]-1-piperazinyl}phenyl)amino]-4-pyrimidinyl}imidazo[1,2-a]pyridin-2-yl)-2-(methyloxy)benzamide] | < 100 nM | < 250 nM | 250 to 1000 nM | < 100 nM
CCc1cc(Nc2nccc(-c3c(-c4cccc(C(=O)Nc5c(F)cccc5F)c4)nc4ccccn34)n2)c(OC)cc1N1CCC(N2CCN(S(C)(=O)=O)CC2)CC1 [Example 244, N-(2,6-difluorophenyl)-3-(3-{2-[(5-ethyl-2-(methyloxy)-4-{4-[4-(methylsulfonyl)-1-piperazinyl]-1-piperidinyl}phenyl)amino]-4-pyrimidinyl}imidazo[1,2-a]pyridin-2-yl)benzamide] | < 100 nM | 250 to 1000 nM | 250 to 1000 nM | < 100 nM
COc1cc(N2CCC(N3CCN(S(C)(=O)=O)CC3)CC2)c(C)cc1Nc1nccc(-c2c(-c3cccc(C(=O)Nc4c(F)cccc4F)c3)nc3ccccn23)n1 [Example 245, N-(2,6-difluorophenyl)-3-(3-{2-[(5-methyl-2-(methyloxy)-4-{4-[4-(methylsulfonyl)-1-piperazinyl]-1-piperidinyl}phenyl)amino]-4-pyrimidinyl}imidazo[1,2-a]pyridin-2-yl)benzamide] | < 100 nM | < 250 nM | 250 to 1000 nM | < 100 nM
CCOc1cc(N2CCN(CCS(C)(=O)=O)CC2)c(C)cc1Nc1nccc(-c2c(-c3ccc(OCC)c(C(=O)Nc4c(F)cccc4F)c3)nc3ccccn23)n1 [Example 248, N-(2,6-difluorophenyl)-2-(ethyloxy)-5-(3-{2-[(2-(ethyloxy)-5-methyl-4-{4-[2-(methylsulfonyl)ethyl]-1-piperazinyl}phenyl)amino]-4-pyrimidinyl}imidazo[1,2-a]pyridin-2-yl)benzamide] | < 100 nM | < 250 nM | < 250 nM | < 100 nM
COc1cc(N2CCN(CCS(C)(=O)=O)[C@@H](C(C)C)C2)ccc1Nc1nccc(-c2c(-c3ccc(OC)c(C(=O)Nc4c(F)cccc4F)c3)nc3ccccn23)n1 [Example 250, N-(2,6-difluorophenyl)-5-[3-(2-{[4-{(3S)-3-(1-methylethyl)-4-[2-(methylsulfonyl)ethyl]-1-piperazinyl}-2-(methyloxy)phenyl]amino}-4-pyrimidinyl)imidazo[1,2-a]pyridin-2-yl]-2-(methyloxy)benzamide] | < 100 nM | < 250 nM | 250 to 1000 nM | < 100 nM

The next lines start with the values.

IC50 [1] | IC50 [2] | IC50 (COLO205 (colon)) | IC50 [3] | Structure (SMILES)
< 100 nM | < 250 nM | < 250 nM | < 100 nM | CCOc1ccc(-c2nc3ccccn3c2-c2ccnc(Nc3ccc(N4CCN(S(C)(=O)=O)CC4)cc3OC)n2)cc1C(=O)Nc1c(F)cccc1F [Example 232, N-(2,6-difluorophenyl)-2-(ethyloxy)-5-{3-[2-({2-(methyloxy)-4-[4-(methylsulfonyl)-1-piperazinyl]phenyl]amino)-4-pyrimidinyl]imidazo[1,2-a]pyridin-2-yl}benzamide]
< 100 nM | < 250 nM | 250 to 1000 nM | < 100 nM | COc1cc(N2CCN(S(C)(=O)=O)CC2)ccc1Nc1nccc(-c2c(-c3ccc(OC)c(C(=O)Nc4c(F)cccc4F)c3)nc3ccccn23)n1 [Example 233, N-(2,6-difluorophenyl)-2-(methyloxy)-5-{3-[2-({2-(methyloxy)-4-[4-(methylsulfonyl)-1-piperazinyl]phenyl}amino)-4-pyrimidinyl]imidazo[1,2-a]pyridin-2-yl}benzamide]
< 100 nM | < 250 nM | 250 to 1000 nM | < 100 nM | COCCN1CCN(c2ccc(Nc3nccc(-c4c(-c5ccc(OC)c(C(=O)Nc6c(F)cccc6F)c5)nc5ccccn45)n3)c(OC)c2)CC1 [Example 239, N-(2,6-difluorophenyl)-2-(methyloxy)-5-(3-{2-[(2-(methyloxy)-4-{4-[2-(methyloxy)ethyl]-1-piperazinyl}phenyl)amino]-4-pyrimidinyl}imidazo[1,2-a]pyridin-2-yl)benzamide]
< 100 nM | < 250 nM | 250 to 1000 nM | < 100 nM | CCOc1ccc(-c2nc3ccccn3c2-c2ccnc(Nc3cc(C)c(N4CCN(CCOC)CC4)cc3OC)n2)cc1C(=O)Nc1c(F)cccc1F [Example 241, N-(2,6-difluorophenyl)-2-(ethyloxy)-5-(3-{2-[(5-methyl-2-(methyloxy)-4-{4-[2-(methyloxy)ethyl]-1-piperazinyl}phenyl)amino]-4-pyrimidinyl}imidazo[1,2-a]pyridin-2-yl)benzamide]
< 100 nM | < 250 nM | 250 to 1000 nM | < 100 nM | COCCN1CCN(c2cc(OC)c(Nc3nccc(-c4c(-c5cccc(C(=O)Nc6c(F)cccc6F)c5)nc5ccccn45)n3)cc2C)CC1 [Example 243, N-(2,6-difluorophenyl)-3-(3-{2-[(5-methyl-2-(methyloxy)-4-{4-[2-(methyloxy)ethyl]-1-piperazinyl}phenyl)amino]-4-pyrimidinyl}imidazo[1,2-a]pyridin-2-yl)benzamide]
< 100 nM | < 250 nM | < 250 nM | < 100 nM | CCOc1cc(N2CCN(CCS(C)(=O)=O)CC2)c(C)cc1Nc1nccc(-c2c(-c3cccc(C(=O)Nc4c(F)cccc4F)c3)nc3ccccn23)n1 [Example 246, N-(2,6-difluorophenyl)-3-(3-{2-[(2-(ethyloxy)-5-methyl-4-{4-[2-(methylsulfonyl)ethyl]-1-piperazinyl}phenyl)amino]-4-pyrimidinyl}imidazo[1,2-a]pyridin-2-yl)benzamide]
